We go through 20 molecules from patent publication US20260132132A1, “3A,4,5,6-TETRAHYDRO-1 H-PYRAZOLO[3,4-C]PYRIDIN-7(7AH)-ONE DERIVATIVES AS FACTOR XIIA INHIBITORS” (KALVISTA PHARMACEUTICALS LIMITED, priority 2022, published 2026).

pIC50: −log10 of the molar value.

Experiment [1] has as its target T1, Human Factor XIIa (hFXIIa) (Homo sapiens, UniProt P00748).
T1 construct: purchased Enzyme Research Laboratories
T1 sequence (P00748 373-615 limits assumed): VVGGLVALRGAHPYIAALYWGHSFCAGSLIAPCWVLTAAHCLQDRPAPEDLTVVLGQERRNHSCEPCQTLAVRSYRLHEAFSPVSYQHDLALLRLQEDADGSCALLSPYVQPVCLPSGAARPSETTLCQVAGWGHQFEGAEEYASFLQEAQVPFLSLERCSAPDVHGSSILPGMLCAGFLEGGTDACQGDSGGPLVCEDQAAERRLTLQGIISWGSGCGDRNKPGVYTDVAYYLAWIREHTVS
T1 sequence (P00748 20-372 partner limits assumed): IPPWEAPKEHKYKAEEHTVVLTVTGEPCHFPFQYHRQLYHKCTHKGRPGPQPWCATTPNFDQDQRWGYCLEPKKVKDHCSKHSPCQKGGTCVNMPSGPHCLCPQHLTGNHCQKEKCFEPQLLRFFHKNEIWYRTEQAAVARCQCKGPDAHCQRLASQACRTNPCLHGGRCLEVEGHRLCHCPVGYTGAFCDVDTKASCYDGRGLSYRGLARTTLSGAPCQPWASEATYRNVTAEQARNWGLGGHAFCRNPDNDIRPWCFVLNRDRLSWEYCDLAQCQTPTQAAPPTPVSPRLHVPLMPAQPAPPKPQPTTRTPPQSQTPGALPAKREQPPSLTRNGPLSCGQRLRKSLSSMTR
Nature of the experiment: Determination of Human Factor XIIa (hFXIIa) inhibition, fluorogenic substrate IC50 assay. It is filed as biochemical. Particulars: fluorogenic substrate H-DPro-Phe-Arg-AFC at Km, 25° C., read-out: Human FXIIa IC50. As for the experimental part: Determination of Human Factor XIIa (hFXIIa) inhibition
The Km for the cleavage of the substrate by hFXIIa was determined by standard transformation of the Michaelis-Menten equation, with subsequent inhibition assays performed at substrate Km concentration.

The target in experiment [2] is FXa (Homo sapiens, UniProt P00742). Nature of the experiment: Related protease inhibition: FXa, fluorogenic substrate. The class given is biochemical. Particulars: fluorogenic substrate at Km, 25° C.; H1-H3 = % activity at 40 μM. The procedure:
Human serine protease enzyme Plasma Kallikrein, KLK1, FXa, Plasmin, Thrombin and Trypsin were assayed for enzymatic activity using an appropriate fluorogenic substrate at Km concentration, FXIa at fixed substrate concentration of 100 μM and various concentrations of the test compound.

FXa, sequence (P00742 235-488 limits assumed): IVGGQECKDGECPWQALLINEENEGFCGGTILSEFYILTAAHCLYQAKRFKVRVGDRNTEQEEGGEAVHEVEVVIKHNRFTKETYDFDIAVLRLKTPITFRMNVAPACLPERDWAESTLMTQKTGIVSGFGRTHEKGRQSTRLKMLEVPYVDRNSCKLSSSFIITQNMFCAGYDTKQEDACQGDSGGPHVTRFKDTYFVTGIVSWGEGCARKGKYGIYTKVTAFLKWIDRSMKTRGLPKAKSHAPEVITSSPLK
FXa, sequence (P00742 41-179 partner limits assumed): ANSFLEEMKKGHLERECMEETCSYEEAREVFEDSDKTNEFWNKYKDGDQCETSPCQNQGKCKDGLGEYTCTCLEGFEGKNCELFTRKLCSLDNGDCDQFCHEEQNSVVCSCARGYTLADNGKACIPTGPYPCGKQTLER

For the molecule `CN1CCc2ccc(N3CCc4c(C(=O)NC5CCC5)nn(-c5cccc(Cl)c5)c4C3=O)cc2C1=O` [Example 1346, 1-(3-chlorophenyl)-N-cyclobutyl-6-(2-methyl-1-oxo-1,2,3,4-tetrahydroisoquinolin-7-yl)-7-oxo-4,5,6,7-tetrahydro-1H-pyrazolo[3,4-c]pyridine-3-carboxamide], the pIC50 (commonly −log10 of the IC50, conventionally taken in molar units) in experiment [1] was 6.00 to 6.52; in experiment [2] it was less than 4.40.
The corresponding values for `CN1CCc2ccc(N3CCc4c(C(=O)NO)nn(-c5cccc(Cl)c5)c4C3=O)cc2C1=O` [Example 1347, 1-(3-chlorophenyl)-N-hydroxy-6-(2-methyl-1-oxo-1,2,3,4-tetrahydroisoquinolin-7-yl)-7-oxo-4,5,6,7-tetrahydro-1H-pyrazolo[3,4-c]pyridine-3-carboxamide] are 6.00 to 6.52 and 5.00 to 5.52.
With `CCOC(=O)c1nn(-c2cccc(Cl)c2)c2c1CCN(c1cccc(-n3ccccc3=O)c1)C2=O` [Example 1350, ethyl 1-(3-chlorophenyl)-7-oxo-6-(3-(2-oxopyridin-1(2H)-yl)phenyl)-4,5,6,7-tetrahydro-1H-pyrazolo[3,4-c]pyridine-3-carboxylate], the pIC50 in experiment [1] and in experiment [2] was 5.00 to 5.52 in each case.
For the molecule `Cc1cc(CNC(=O)c2nn(-c3cccc(Cl)c3)c3c2CCN(c2ccc4c(c2)C(=O)N(C)[C@H](CO)CO4)C3=O)nn1C` [Example 1351, (R)-1-(3-chlorophenyl)-N-((1,5-dimethyl-1H-pyrazol-3-yl)methyl)-6-(3-(hydroxymethyl)-4-methyl-5-oxo-2,3,4,5-tetrahydrobenzo[f][1,4]oxazepin-7-yl)-7-oxo-4,5,6,7-tetrahydro-1H-pyrazolo[3,4-c]pyridine-3-carboxamide], the pIC50 in experiment [1] was 5.00 to 5.52; in experiment [2], less than 4.40.
The corresponding values for `CCN1CCOc2ccc(N3CCc4c(C(=O)NCc5cc(C)[nH]n5)nn(-c5cccc(Cl)c5)c4C3=O)cc2C1=O` [Example 1352, 1-(3-chlorophenyl)-6-(4-ethyl-5-oxo-2,3,4,5-tetrahydrobenzo[f][1,4]oxazepin-7-yl)-N-((5-methyl-1H-pyrazol-3-yl)methyl)-7-oxo-4,5,6,7-tetrahydro-1H-pyrazolo[3,4-c]pyridine-3-carboxamide] are 7.00 to 8.00 and 5.00 to 5.52.
The corresponding values for `CN1CCc2ccc(N3CCc4c(C5=NCCO5)nn(-c5cccc(Cl)c5)c4C3=O)cc2C1=O` [Example 1353, 7-(1-(3-Chlorophenyl)-3-(4,5-dihydrooxazol-2-yl)-7-oxo-1,4,5,7-tetrahydro-6H-pyrazolo[3,4-c]pyridin-6-yl)-2-methyl-3,4-dihydroisoquinolin-1 (2H)-one] are 6.00 to 6.52 and 5.00 to 5.52.
Taken in the same sequence, the figures for `CN1CCc2ccc(N3CCc4c(COC5(C)COC5)nn(-c5cccc(Cl)c5)c4C3=O)cc2C1=O` [Example 1354, 7-(1-(3-chlorophenyl)-3-(((3-methyloxetan-3-yl)oxy)methyl)-7-oxo-1,4,5,7-tetrahydro-6H-pyrazolo[3,4-c]pyridin-6-yl)-2-methyl-3,4-dihydroisoquinolin-1 (2H)-one] were 5.52 to 6.00 and 4.40 to 5.00.
Consider `O=C(NCc1ccn(C2CC2)n1)c1nn(-c2cccc(Cl)c2)c2c1CCN(c1ccc3c(c1)C(=O)N(CCO)CC3)C2=O` [Example 1355, 1-(3-chlorophenyl)-N-((1-cyclopropyl-1H-pyrazol-3-yl)methyl)-6-(2-(2-hydroxyethyl)-1-oxo-1,2,3,4-tetrahydroisoquinolin-7-yl)-7-oxo-4,5,6,7-tetrahydro-1H-pyrazolo[3,4-c]pyridine-3-carboxamide], for which the figures for the pIC50 in experiment [1] and in experiment [2] were 6.52 to 7.00 and less than 4.40, respectively.
Taken in the same sequence, the figures for `Cc1ccncc1COCc1nn(-c2cccc(Cl)c2)c2c1CCN(c1ccc3c(c1)C(=O)N(C)CC3)C2=O` [Example 1356, 7-(1-(3-chlorophenyl)-3-(((4-methylpyridin-3-yl)methoxy)methyl)-7-oxo-1,4,5,7-tetrahydro-6H-pyrazolo[3,4-c]pyridin-6-yl)-2-methyl-3,4-dihydroisoquinolin-1(2H)-one] were 5.52 to 6.00 and 5.00 to 5.52.
Taken in the same sequence, the figures for `Cc1cnccc1CNC(=O)c1nn(-c2cccc(Cl)c2)c2c1CCN(c1ccc3c(c1)C(=O)N(CCO)CC3)C2=O` [Example 1357, 1-(3-chlorophenyl)-6-(2-(2-hydroxyethyl)-1-oxo-1,2,3,4-tetrahydroisoquinolin-7-yl)-N-((3-methylpyridin-4-yl)methyl)-7-oxo-4,5,6,7-tetrahydro-1H-pyrazolo[3,4-c]pyridine-3-carboxamide] were 6.00 to 6.52 and less than 4.40.
Taken in the same sequence, the figures for `CN1CCc2ccc(N3CCc4c(COCC(=O)O)nn(-c5cccc(Cl)c5)c4C3=O)cc2C1=O` [Example 1358, 2-((1-(3-chlorophenyl)-6-(2-methyl-1-oxo-1,2,3,4-tetrahydroisoquinolin-7-yl)-7-oxo-4,5,6,7-tetrahydro-1H-pyrazolo[3,4-c]pyridin-3-yl)methoxy)acetic acid] were 5.52 to 6.00 and 5.00 to 5.52.
Take `CN1CCc2ccc(N3CCc4c(C(=O)NC5(C)CC5)nn(-c5cccc(Cl)c5)c4C3=O)cc2C1=O` [Example 1359, 1-(3-chlorophenyl)-6-(2-methyl-1-oxo-1,2,3,4-tetrahydroisoquinolin-7-yl)-N-(1-methylcyclopropyl)-7-oxo-4,5,6,7-tetrahydro-1H-pyrazolo[3,4-c]pyridine-3-carboxamide]: the pIC50 in experiment [1] was 6.00 to 6.52; in experiment [2] it was less than 4.40.
The corresponding values for `CN1CCc2ccc(N3CCc4c(C(=O)NC5(CO)CC5)nn(-c5cccc(Cl)c5)c4C3=O)cc2C1=O` [Example 1360, 1-(3-chlorophenyl)-N-(1-(hydroxymethyl)cyclopropyl)-6-(2-methyl-1-oxo-1,2,3,4-tetrahydroisoquinolin-7-yl)-7-oxo-4,5,6,7-tetrahydro-1H-pyrazolo[3,4-c]pyridine-3-carboxamide] are 6.00 to 6.52 and 4.40 to 5.00.
As to `CN1CCc2ccc(N3CCc4c(C(=O)NC5(C(=O)O)CC5)nn(-c5cccc(Cl)c5)c4C3=O)cc2C1=O` [Example 1361, 1-(1-(3-chlorophenyl)-6-(2-methyl-1-oxo-1,2,3,4-tetrahydroisoquinolin-7-yl)-7-oxo-4,5,6,7-tetrahydro-1H-pyrazolo[3,4-c]pyridine-3-carboxamido)cyclopropane-1-carboxylic acid], the results for the pIC50 in experiment [1] and in experiment [2] were 5.52 to 6.00 and 4.40 to 5.00, respectively.
Taken in the same sequence, the figures for `CCNC(=O)c1nn(-c2cccc(Cl)c2)c2c1CCN(c1cccc(N3CCOC3=O)c1)C2=O` [Example 1362, 1-(3-chlorophenyl)-N-ethyl-7-oxo-6-(3-(2-oxooxazolidin-3-yl)phenyl)-4,5,6,7-tetrahydro-1H-pyrazolo[3,4-c]pyridine-3-carboxamide] were 5.00 to 5.52 and less than 4.40.
Taken in the same sequence, the figures for `CCNC(=O)c1nn(-c2cccc(Cl)c2)c2c1CCN(c1cccc(N3CCCOC3=O)c1)C2=O` [Example 1363, 1-(3-chlorophenyl)-N-ethyl-7-oxo-6-(3-(2-oxo-1,3-oxazinan-3-yl)phenyl)-4,5,6,7-tetrahydro-1H-pyrazolo[3,4-c]pyridine-3-carboxamide] were 5.00 to 5.52 and less than 4.40.
The corresponding values for `CCNC(=O)c1nn(-c2cccc(Cl)c2)c2c1CCN(c1cccc(N3CCN(C)C3=O)c1)C2=O` [Example 1364, 1-(3-chlorophenyl)-N-ethyl-6-(3-(3-methyl-2-oxoimidazolidin-1-yl)phenyl)-7-oxo-4,5,6,7-tetrahydro-1H-pyrazolo[3,4-c]pyridine-3-carboxamide] are 5.52 to 6.00 and less than 4.40.
As to `CCNC(=O)c1nn(-c2cccc(Cl)c2)c2c1CCN(c1cccc(N3CCCC3=O)c1)C2=O` [Example 1365, 1-(3-chlorophenyl)-N-ethyl-7-oxo-6-(3-(2-oxopyrrolidin-1-yl)phenyl)-4,5,6,7-tetrahydro-1H-pyrazolo[3,4-c]pyridine-3-carboxamide], the negative-log IC50 (pIC50) in experiment [1] was 5.52 to 6.00; in experiment [2], less than 4.40.
The corresponding values for `CCNC(=O)c1nn(-c2cccc(Cl)c2)c2c1CCN(c1cccc(N3CCCS3(=O)=O)c1)C2=O` [Example 1366, 1-(3-chlorophenyl)-6-(3-(1,1-dioxidoisothiazolidin-2-yl)phenyl)-N-ethyl-7-oxo-4,5,6,7-tetrahydro-1H-pyrazolo[3,4-c]pyridine-3-carboxamide] are 5.00 to 5.52 and 4.40 to 5.00.
`CCNC(=O)c1nn(-c2cccc(Cl)c2)c2c1CCN(c1cccc(N3C(=O)CC4CC43)c1)C2=O` (stereo not shown) [Example 1367, 1-(3-Chlorophenyl)-N-ethyl-7-oxo-6-(3-(3-oxo-2-azabicyclo[3.1.0]hexan-2-yl)phenyl)-4,5,6,7-tetrahydro-1H-pyrazolo[3,4-c]pyridine-3-carboxamide]: the pIC50 in experiment [1] was 6.00 to 6.52; in experiment [2], 4.40 to 5.00.
